This is an account of results in PMC7181131, “N-Pyrazinoyl Substituted Amino Acids as Potential Antimycobacterial Agents—the Synthesis and Biological Evaluation of Enantiomers” (Molecules, 2020).

Data set [1] deals with Staphylococcus epidermidis CCM 4418 (ATCC 12228). Put plainly: Antibacterial microdilution broth method, SE. Type of data set: cell-based. To be noted: 24 h.
Data set [2] concerns Klebsiella pneumoniae CCM 4415 (ATCC 10031). Put plainly: Antibacterial microdilution broth method, KP. To be noted: for MIC: Klebsiella pneumoniae.
For data set [3], the system named is Mtb H37Ra ITM-M006710 (ATCC 9431). The data set can be described thus: Microplate Alamar Blue Assay (MABA) microdilution, Mtb H37Ra. It is filed as cell-based, Mycobacterium tuberculosis. The following applies: Mycobacterium tuberculosis.
The subject of data set [4] is M. smegmatis DSM 43465 (ATCC 607). Put plainly: Microplate Alamar Blue Assay (MABA) microdilution, M. smegmatis. It is filed as cell-based, Mycobacterium smegmatis.
Data set [5] has as its system Mycobacterium aurum DSM 43999 (ATCC 23366). Put plainly: Microplate Alamar Blue Assay (MABA) microdilution, M. aurum. It is filed as cell-based.
Data set [6] deals with Candida albicans CCM 8320 (ATCC 24433). The data set can be described thus: Antifungal microdilution broth method, CA. The following applies: 24 h, read-out: MIC CA. It is filed as cell-based.
The subject of data set [7] is Candida krusei CCM 8271 (ATCC 6258). The data set can be described thus: Antifungal microdilution broth method, CK. The following applies: Pichia kudriavzevii, 24 h, read-out: MIC CK. Type of data set: cell-based.
Data set [8] concerns Candida parapsilosis CCM 8260 (ATCC 22019). Put plainly: Antifungal microdilution broth method, CP. Type of data set: cell-based. To be noted: Lodderomyces parapsilosis, 24 h, read-out: MIC CP.
The test system of data set [9] is Candida tropicalis CCM 8264 (ATCC 750). The data set can be described thus: Antifungal microdilution broth method, CT. It is filed as cell-based. The following applies: 24 h, read-out: MIC CT.
Data set [10] deals with Aspergillus fumigatus ATCC 204305. The data set can be described thus: Antifungal microdilution broth method, AF. It is filed as cell-based. To be noted: ATCC204305, 48 h, read-out: MIC AF.
The subject of data set [11] is Aspergillus flavus CCM 8363. Put plainly: Antifungal microdilution broth method, AFla. The following applies: CCM8363, read after 48 h (filamentous fungi), read-out: MIC AFla. Type of data set: cell-based. As for the experimental part: 6. In vitro antifungal activity screening
Antifungal activity evaluation was performed using a microdilution broth method according to EUCAST instructions (The European Committee on Antimicrobial Susceptibility Testing) with slight modifications. Eight fungal strains (four yeast and four mould strains) were used for antifungal […]
and Trichophyton interdigitale CCM 8377 (ATCC 9533). Tested strains were purchased from the Czech Collection of Microorganisms (CCM, Brno, Czech Republic) or from the American Type Collection Cultures (ATCC, Manassas, VA, USA). Tested compounds were dissolved in DMSO and diluted in a twofold manner with RPMI 1640 medium, with glutamine and 2% glucose, buffered to pH 7.0 with MOPS (3-morpholinopropane-1-sulfonic acid). The final concentration of DMSO in the testing […]
Static incubation was performed in the dark and in humid atmosphere, at 35±2 °C, for 24 and 48 h (72 and 120 h for Trichophyton interdigitale respectively). Positive controls consisted of test microbe solely, while negative controls consisted of cultivation medium and DMSO. Visual inspection and metabolic activity indicator, Alamar Blue (ThermoFisher Scientific), were used for MIC endpoint evaluation. The internal quality standards, amphotericin B (Sigma-Aldrich) and voriconazole (Toronto research Chemicals, CA) were involved in assays (for MIC of standards see Table S5). All experiments were conducted in duplicates.
For the results to be valid, the difference in MIC for one compound determined from two parallel measurements must not be greater than one step on the dilution scale.

Data set [12] concerns Lichtheimia corymbifera CCM 8077. The data set can be described thus: Antifungal microdilution broth method, LC. Type of data set: cell-based. To be noted: CCM8077, 48 h, read-out: MIC LC.
In data set [13] the test system is Trichophyton interdigitale CCM 8377 (ATCC 9533). Put plainly: Antifungal microdilution broth method, TI. Type of data set: cell-based. To be noted: 48 h, read-out: MIC TI.
The mark [14] stands for this setting: pH 6.6, read-out: MIC Mtb H37Ra.
Where [15] appears, read: pH 6, calculated from µg/mL, read-out: MIC Mtb H37Ra.
[16] abbreviates: Mycolicibacterium smegmatis, pH 6, read-out: MIC M. smegmatis µg/mL.
Where [17] appears, read: Mycolicibacterium smegmatis, pH 6.6, read-out: MIC M. smegmatis.
Setting [18] is: Mycolicibacterium aurum, pH 6, read-out: MIC M. aurum µg/mL.
Setting [19] is: Mycolicibacterium aurum, pH 6.6, read-out: MIC M. aurum.

Values after ≈ are worked out from the molar mass of the structure shown. Read-outs that look alike come from different tables or passages of the source.

On to `CNC(C)C1CCC(N)C(OC2C(N)CC(N)C(OC3OCC(C)(O)C(NC)C3O)C2O)O1` (stereo not shown) [gentamicin, reference compound], for which the MIC in data set [1] (internal quality control, 530 nm, inhibition of growth of 95%, read-out: MIC, spectrophotometric detection) came out at 0.125 µg/mL; in data set [1] (internal quality control, naked eye, no visible growth, read-out: MIC, visual detection) it was 0.125 µg/mL; in data set [2] (24 h, read-out: MIC, visual detection) it was 0.5 µg/mL (≈ 1.05 µM); in [2] (ATCC10031|CCM4415, 24 h, read-out: MIC, spectrophotometric detection) it was 0.5 µg/mL (≈ 1.05 µM).
`COC(=O)[C@H](COC(C)(C)C)NC(=O)c1cnccn1` [PC-L-OtBu-Ser-Me, methyl O-(tert-butyl)-N-(pyrazine-2-carbonyl)-L-serinate]: the MIC was at least 500 µg/mL in [3] (pH 6); at least 500 µg/mL in [3] (pH 6, read-out: MIC Mtb H37Ra); at least 500 µg/mL in data set [3] (setting [14]); at least 1780 µM in [3] (setting [15]); 250 µg/mL (≈ 889 µM) in data set [4] (setting [16]); at least 500 µg/mL in data set [4] (setting [17]). Moreover, the MIC is 62.5 µg/mL (≈ 222 µM) in data set [5] (setting [18]); at least 500 µg/mL in [5] (setting [19]); above 500 µM in [1] (read-out: MIC SE); above 500 µM in data set [6]; above 500 µM in data set [7]; above 500 µM in data set [8]. The MIC in [9], in data set [10], in data set [11], in [12] and in [13] was above 500 µM throughout. Also, in data set [2] (read after 24 h of incubation), the “MIC KP” value is reported as above 500 µM.
For the compound `O=C(N[C@@H](CSCc1ccccc1)C(=O)O)c1cnccn1` [PC-L-SBn-Cys, S-benzyL-N-(pyrazine-2-carbonyl)-L-cysteine], the MIC in [3] (pH 6) was 62.5 µg/mL; in data set [3] (pH 6, read-out: MIC Mtb H37Ra) it was 62.5 µg/mL; in [3] (setting [14]) it was at least 250 µg/mL; in data set [3] (setting [15]), 197 µM; in data set [4] (setting [16]), at least 250 µg/mL; in [4] (setting [17]), at least 250 µg/mL. In addition, the MIC in data set [5] (setting [18]) is 125 µg/mL (≈ 394 µM); in data set [5] (setting [19]), at least 250 µg/mL; in data set [1] (read-out: MIC SE) it was 250 µM; in data set [6] it was above 250 µM; in [7] it was above 250 µM; in data set [8] it was above 250 µM. Moreover, the MIC in data set [9], in [10], in [11], in data set [12] and in [13] was above 250 µM each time.
Take `CO[C@H]1/C=C/O[C@@]2(C)Oc3c(C)c(O)c4c(O)c(c(/C=N/N5CCN(C)CC5)c(O)c4c3C2=O)NC(=O)/C(C)=C\C=C\[C@H](C)[C@H](O)[C@@H](C)[C@@H](O)[C@@H](C)[C@H](OC(C)=O)[C@@H]1C` [RIF, rifampicin, reference compound]: the MIC is 0.0016 to 0.0062 µg/mL in data set [3] (pH 6, read-out: MIC Mtb H37Ra); 0.0039 to 0.0078 µg/mL in data set [3] (setting [14]); 0.0019 to 0.0075 µM in data set [3] (setting [15]); 6.25 to 12.5 µg/mL (≈ 7.59 to 15.2 µM) in data set [4] (Mycolicibacterium smegmatis, pH 6; read-out: MIC M. smegmatis); 12.5 to 25 µg/mL (≈ 15.2 to 30.4 µM) in data set [4] (Mycolicibacterium smegmatis, pH 6.6; read-out: MIC M. smegmatis); 0.39 to 1.56 µg/mL (≈ 0.474 to 1.9 µM) in [5] (Mycolicibacterium aurum, pH 6; read-out: MIC M. aurum). The MIC in [5] (Mycolicibacterium aurum, pH 6.6; read-out: MIC M. aurum) lay within 0.39 to 0.78 µg/mL (≈ 0.474 to 0.948 µM).
